The values that follow come from PubChem BioAssay AID248 (DTP/NCI, 2004).

The test system of the experiment is L1210 leukemia ip in BDF1 mice, survival T/C. The experiment can be described thus: NCI In Vivo Anticancer Drug Screen. Data for tumor model L1210 Leukemia (intraperitoneal) in B6D2F1 (BDF1) mice. Conditions: endpoint: mean survival time, higher = longer survival. The method, boiled down: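 Mice bearing the transplanted tumor received compound or vehicle. Survival of the treated group was divided by that of the vehicle-treated control group to give the ratio.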

[1] abbreviates: dose: 100.0 mg/kg/injection, schedule: Q04DX002 (ip), vehicle: Klucel (hydroxypropylcellulose) (HPC).
Where [2] appears, read: dose: 12.5 mg/kg/injection, schedule: Q01DX009 (ip), vehicle: Klucel (hydroxypropylcellulose) (HPC).
Where [3] appears, read: dose: 25.0 mg/kg/injection, schedule: Q04DX003 (ip), vehicle: Klucel (hydroxypropylcellulose) (HPC).
[4] abbreviates: dose: 50.0 mg/kg/injection, schedule: Q04DX003 (ip), vehicle: Klucel (hydroxypropylcellulose) (HPC).
The mark [5] stands for this setting: dose: 25.0 mg/kg/injection, schedule: Q01DX009 (ip), vehicle: saline with Tween-80.
Setting [6] is: dose: 50.0 mg/kg/injection, schedule: Q01DX009 (ip), vehicle: saline.
Setting [7] is: dose: 100.0 mg/kg/injection, schedule: Q01DX009 (ip), vehicle: saline.
Where [8] appears, read: dose: 200.0 mg/kg/injection, schedule: Q01DX009 (ip), vehicle: saline.
The mark [9] stands for this setting: dose: 100.0 mg/kg/injection, schedule: Q04DX003 (ip), vehicle: Klucel (hydroxypropylcellulose) (HPC).
The mark [10] stands for this setting: dose: 200.0 mg/kg/injection, schedule: Q04DX003 (ip), vehicle: Klucel (hydroxypropylcellulose) (HPC).
Setting [11] is: dose: 400.0 mg/kg/injection, schedule: Q04DX003 (ip), vehicle: Klucel (hydroxypropylcellulose) (HPC).
[12] abbreviates: dose: 100.0 mg/kg/injection, schedule: Q01DX001 (ip), vehicle: other.
Where [13] appears, read: dose: 200.0 mg/kg/injection, schedule: Q01DX001 (ip), vehicle: other.
Where [14] appears, read: dose: 400.0 mg/kg/injection, schedule: Q01DX001 (ip), vehicle: other.

Toxic doses and inconclusive results are not listed.

Take `CNC(=O)CCCOC(=O)c1ccc([N+](=O)[O-])cc1`: the T/C (dose: 25.0 mg/kg/injection, schedule: Q04DX002 (ip), vehicle: Klucel (hydroxypropylcellulose) (HPC)) is 108 % of control; the T/C (dose: 50.0 mg/kg/injection, schedule: Q04DX002 (ip), vehicle: Klucel (hydroxypropylcellulose) (HPC)) is 108 % of control; the T/C under setting [1] was 104 % of control.
With `FC1(F)SC2CCCCCCC2C1(F)F` (configuration not stated), the T/C reads like this: under setting [2], 98 % of control; (dose: 12.5 mg/kg/injection, schedule: Q04DX003 (ip), vehicle: Klucel (hydroxypropylcellulose) (HPC)) 97 % of control; (dose: 25.0 mg/kg/injection, schedule: Q01DX009 (ip), vehicle: Klucel (hydroxypropylcellulose) (HPC)) 104 % of control; under setting [3], 101 % of control; (dose: 50.0 mg/kg/injection, schedule: Q01DX009 (ip), vehicle: Klucel (hydroxypropylcellulose) (HPC)) 100 % of control; under setting [4], 95 % of control.
`C1CCc2c(sc3c2CCCC3)C1`: the T/C reads like this: (dose: 50.0 mg/kg/injection, schedule: Q01DX001 (ip), vehicle: carboxymethylcellulose (CMC)) 98 % of control; (dose: 100.0 mg/kg/injection, schedule: Q01DX001 (ip), vehicle: carboxymethylcellulose (CMC)) 104 % of control; (dose: 200.0 mg/kg/injection, schedule: Q01DX001 (ip), vehicle: carboxymethylcellulose (CMC)) 98 % of control; (dose: 400.0 mg/kg/injection, schedule: Q01DX001 (ip), vehicle: carboxymethylcellulose (CMC)) 107 % of control.
`Clc1nc2ccccc2nc1CI`: the T/C (dose: 6.25 mg/kg/injection, schedule: Q01DX009 (ip), vehicle: Klucel (hydroxypropylcellulose) (HPC)) was 94 % of control; the T/C under setting [2] is 102 % of control; the T/C under setting [5] is 89 % of control; the T/C under setting [3] is 102 % of control; the T/C under setting [4] is 90 % of control.
With `CC(=O)Nc1ccc(CCCCc2cccc(C#N)c2)cc1`, the T/C under setting [6] is 95 % of control, the T/C under setting [7] was 100 % of control and the T/C under setting [8] was 97 % of control.
As to `Cc1cc(C)c(CC(=N)c2ccccc2)c(C)c1`, the T/C runs as follows: (dose: 100.0 mg/kg/injection, schedule: Q01DX001 (ip), vehicle: acetone) 96 % of control; (dose: 200.0 mg/kg/injection, schedule: Q01DX001 (ip), vehicle: acetone) 94 % of control; (dose: 400.0 mg/kg/injection, schedule: Q01DX001 (ip), vehicle: acetone) 88 % of control.
Consider `CCCCc1c(Cl)nc(Cl)nc1Cl`, for which the T/C is, setting by setting: under setting [5], 105 % of control; (dose: 50.0 mg/kg/injection, schedule: Q01DX009 (ip), vehicle: saline with Tween-80) 88 % of control.
Turning to `C/C=C1\CCCCN(Cc2ccccc2)CCC1`, the T/C was 104 % of control (dose: 75.0 mg/kg/injection, schedule: Q01DX001 (ip), vehicle: saline) and 98 % of control (dose: 150.0 mg/kg/injection, schedule: Q01DX001 (ip), vehicle: saline).
Consider `O=S(=O)(Oc1ccc(Cl)cc1)c1ccc(Cl)cc1`, for which the T/C is 88 % of control under setting [7]; 103 % of control (dose: 100.0 mg/kg/injection, schedule: Q04DX003 (ip), vehicle: saline); 98 % of control (dose: 200.0 mg/kg/injection, schedule: Q04DX003 (ip), vehicle: saline); 90 % of control (dose: 400.0 mg/kg/injection, schedule: Q01DX009 (ip), vehicle: saline); 103 % of control (dose: 400.0 mg/kg/injection, schedule: Q04DX003 (ip), vehicle: saline).
As to `C/C=C/CC1=C(O)c2ccccc2C(=O)C1=O`, for the setting “dose: 100.0 mg/kg/injection, schedule: Q01DX001 (ip), vehicle: water”, the T/C was 98 % of control.
In the case of `CC(C)=CCNc1ncnc2c(C3OC(CO)C(O)C3O)[nH]nc12` (configuration not stated), the T/C by setting is: (dose: 100.0 mg/kg/injection, schedule: Q01DX005 (ip), vehicle: saline) 95 % of control; (dose: 200.0 mg/kg/injection, schedule: Q01DX005 (ip), vehicle: saline) 95 % of control.
As for `CS(=O)(=O)OC12CC3CC(CC(C3)C1)C2`, the T/C is 96 % of control under setting [6]; 90 % of control (dose: 100.0 mg/kg/injection, schedule: Q01DX001 (ip), vehicle: saline); 96 % of control under setting [7]; 98 % of control (dose: 200.0 mg/kg/injection, schedule: Q01DX001 (ip), vehicle: saline); 94 % of control under setting [8].
`C[C@H]1CN1C1=CC(=O)C(N2C[C@@H]2C)=CC1=O`: the T/C by setting is: (dose: 0.88 mg/kg/injection, schedule: Q04DX003 (ip), vehicle: other) 106 % of control; (dose: 1.0 mg/kg/injection, schedule: Q01DX001 (ip), vehicle: other) 108 % of control; (dose: 1.56 mg/kg/injection, schedule: Q01DX009 (ip), vehicle: other) 120 % of control; (dose: 2.0 mg/kg/injection, schedule: Q01DX001 (ip), vehicle: other) 105 % of control; (dose: 2.0 mg/kg/injection, schedule: Q04DX003 (ip), vehicle: Klucel (hydroxypropylcellulose) (HPC)) 108 % of control; (dose: 2.0 mg/kg/injection, schedule: Q04DX003 (ip), vehicle: other) 120 % of control. Further, the T/C reads like this: (dose: 4.0 mg/kg/injection, schedule: Q04DX003 (ip), vehicle: Klucel (hydroxypropylcellulose) (HPC)) 117 % of control; (dose: 5.0 mg/kg/injection, schedule: Q01DX009 (ip), vehicle: other) 166 % of control; (dose: 8.0 mg/kg/injection, schedule: Q04DX003 (ip), vehicle: Klucel (hydroxypropylcellulose) (HPC)) 124 % of control; (dose: 9.0 mg/kg/injection, schedule: Q04DX003 (ip), vehicle: saline with Tween-80) 95 % of control; (dose: 9.5 mg/kg/injection, schedule: Q01DX001 (ip), vehicle: other) 114 % of control; (dose: 12.0 mg/kg/injection, schedule: Q01DX009 (ip), vehicle: other) 92 % of control. Also, under “dose: 25.0 mg/kg/injection, schedule: Q04DX003 (ip), vehicle: saline with Tween-80”, the T/C was 105 % of control.
In the case of `CC(=O)Oc1cc(C(c2ccccc2)c2ccccc2)ccc1N(C(C)=O)S(=O)(=O)c1ccccc1`, the T/C (dose: 100.0 mg/kg/injection, schedule: Q04DX003 (ip), vehicle: saline with Tween-80) was 92 % of control; the T/C (dose: 200.0 mg/kg/injection, schedule: Q04DX003 (ip), vehicle: saline with Tween-80) was 88 % of control; the T/C (dose: 400.0 mg/kg/injection, schedule: Q04DX003 (ip), vehicle: saline with Tween-80) is 92 % of control.
`CCC(=O)Nc1ccc(C)cc1C`: the T/C was 92 % of control (dose: 100.0 mg/kg/injection, schedule: Q01DX009 (ip), vehicle: Klucel (hydroxypropylcellulose) (HPC)); 97 % of control under setting [9]; 94 % of control (dose: 200.0 mg/kg/injection, schedule: Q01DX009 (ip), vehicle: Klucel (hydroxypropylcellulose) (HPC)); 107 % of control under setting [10]; 96 % of control under setting [11].
Turning to `Cc1ccc2c(C)c(C)c(=O)n(C)c2c1`, the T/C is, setting by setting: under setting [12], 104 % of control; under setting [13], 98 % of control; under setting [14], 95 % of control.
Take `CO/C=C(\C)C(=O)O`: the T/C is, setting by setting: under setting [12], 102 % of control; under setting [13], 98 % of control; under setting [14], 93 % of control.
Consider `CC(C)C(C#Cc1ccccc1)N1CCCCC1` (configuration not stated), for which the T/C runs as follows: (dose: 100.0 mg/kg/injection, schedule: Q04DX002 (ip), vehicle: saline with Tween-80) 103 % of control; (dose: 200.0 mg/kg/injection, schedule: Q04DX002 (ip), vehicle: saline with Tween-80) 87 % of control; (dose: 400.0 mg/kg/injection, schedule: Q04DX002 (ip), vehicle: saline with Tween-80) 97 % of control.
For `CCN(C(=O)Nc1cccc(C(F)(F)F)c1)c1ccccc1C(F)(F)F`, the T/C under setting [9] was 98 % of control, the T/C under setting [10] was 91 % of control and the T/C under setting [11] was 93 % of control.
For `CC1(C)C(=O)C2CCC1C2` (configuration not stated), the T/C was 90 % of control under setting [1]; 87 % of control (dose: 200.0 mg/kg/injection, schedule: Q04DX002 (ip), vehicle: Klucel (hydroxypropylcellulose) (HPC)); 103 % of control (dose: 400.0 mg/kg/injection, schedule: Q04DX002 (ip), vehicle: Klucel (hydroxypropylcellulose) (HPC)).
